Assay results: patent publication US20250230193A1, “CYCLIC COMPOUND HAVING SELECTIVE KRAS INHIBITORY EFFECT ON HRAS AND NRAS” (CHUGAI SEIYAKU KABUSHIKI KAISHA, priority 2022, published 2025)

Columns and labels:
[1] = target: GDP-bound NRAS wild-type protein (Homo sapiens, UniProt P01111); assay: Binding to NRAS by surface plasmon resonance (SPR), Single Cycle Kinetics; conditions: KD ratio NRAS/KRAS, SPR
[2] = target: GDP-bound HRAS wild-type protein (Homo sapiens, UniProt P01112); assay: Binding to HRAS by surface plasmon resonance (SPR), Single Cycle Kinetics; conditions: KD ratio HRAS/KRAS, SPR
Chain of GDP-bound HRAS wild-type protein (P01112 whole entry): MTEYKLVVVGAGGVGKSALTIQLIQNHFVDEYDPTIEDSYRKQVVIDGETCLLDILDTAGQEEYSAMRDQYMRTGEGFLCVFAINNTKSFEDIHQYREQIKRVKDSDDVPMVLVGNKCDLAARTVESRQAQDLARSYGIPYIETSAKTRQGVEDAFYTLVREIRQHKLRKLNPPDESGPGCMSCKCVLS

Chain of GDP-bound NRAS wild-type protein (P01111 whole entry): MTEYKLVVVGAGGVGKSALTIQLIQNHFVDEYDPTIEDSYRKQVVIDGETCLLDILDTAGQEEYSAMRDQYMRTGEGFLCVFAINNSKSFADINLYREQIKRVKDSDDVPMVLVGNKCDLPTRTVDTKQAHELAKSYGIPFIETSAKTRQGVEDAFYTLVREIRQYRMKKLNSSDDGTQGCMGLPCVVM

Structure (SMILES) | NRAS/KRAS (ratio of KD value with respect to GDP-bound NRAS wild-type protein to KD value with respect to KRAS) [1] | HRAS/KRAS (ratio of KD value with respect to GDP-bound HRAS wild-type protein to KD value with respect to KRAS) [2]
CCC[C@H]1C(=O)N[C@@H]([C@@H](C)CC)C(=O)N(C)CC(=O)N(C)[C@H]2CCCCN(C2=O)[C@@H](Cc2ccc(C(F)(F)F)cc2)C(=O)N(C)CC(=O)N[C@@H](CCc2cc(F)c(C(F)(F)F)c(F)c2)C(=O)N2C[C@H](OCC)C[C@H]2C(=O)NC2(CCC2)C(=O)N(C)[C@@H](C2CCCC2)C(=O)N(C)[C@H](C(=O)N2CCOCC2)CC(=O)N1C [PP0709] | C (A compound having a KD ratio of 0.1 or more and less than 3 is denoted as C) | B (a compound having 3 or more and less than 10 is denoted as B)
C=CC[C@H]1C(=O)N[C@@H]([C@@H](C)CC)C(=O)N(C)CC(=O)N(C)[C@H]2CCCCN(C2=O)[C@@H](Cc2ccc(C(F)(F)F)cc2)C(=O)N(C)CC(=O)N[C@@H](CCc2cc(F)c(C(F)(F)F)c(F)c2)C(=O)N2C[C@H](OCC)C[C@H]2C(=O)NC2(CCC2)C(=O)N(C)[C@@H](C2CCCC2)C(=O)N(C)[C@H](C(=O)N2CCOCC2)CC(=O)N1C [PP0710] | C (A compound having a KD ratio of 0.1 or more and less than 3 is denoted as C) | B (a compound having 3 or more and less than 10 is denoted as B)
C#CC[C@H]1C(=O)N[C@@H]([C@@H](C)CC)C(=O)N(C)CC(=O)N(C)[C@H]2CCCCN(C2=O)[C@@H](Cc2ccc(C(F)(F)F)cc2)C(=O)N(C)CC(=O)N[C@@H](CCc2cc(F)c(C(F)(F)F)c(F)c2)C(=O)N2C[C@H](OCC)C[C@H]2C(=O)NC2(CCC2)C(=O)N(C)[C@@H](C2CCCC2)C(=O)N(C)[C@H](C(=O)N2CCOCC2)CC(=O)N1C [PP0711] | C (A compound having a KD ratio of 0.1 or more and less than 3 is denoted as C) | B (a compound having 3 or more and less than 10 is denoted as B)
CCO[C@@H]1C[C@H]2C(=O)NC3(CCC3)C(=O)N(C)[C@@H](C3CCCC3)C(=O)N(C)[C@H](C(=O)N3CCOCC3)CC(=O)N(C)[C@@H](CC3CC3)C(=O)N[C@@H]([C@@H](C)CC)C(=O)N(C)CC(=O)N(C)[C@H]3CCCCN(C3=O)[C@@H](Cc3ccc(C(F)(F)F)cc3)C(=O)N(C)CC(=O)N[C@@H](CCc3cc(F)c(C(F)(F)F)c(F)c3)C(=O)N2C1 [PP0712] | C (A compound having a KD ratio of 0.1 or more and less than 3 is denoted as C) | C (A compound having a KD ratio of 0.1 or more and less than 3 is denoted as C)
CCO[C@@H]1C[C@H]2C(=O)NC3(CCC3)C(=O)N(C)[C@@H](C3CCCC3)C(=O)N(C)[C@H](C(=O)N3CCOCC3)CC(=O)N(C)[C@@H](CC3CCC3)C(=O)N[C@@H]([C@@H](C)CC)C(=O)N(C)CC(=O)N(C)[C@H]3CCCCN(C3=O)[C@@H](Cc3ccc(C(F)(F)F)cc3)C(=O)N(C)CC(=O)N[C@@H](CCc3cc(F)c(C(F)(F)F)c(F)c3)C(=O)N2C1 [PP0713] | C (A compound having a KD ratio of 0.1 or more and less than 3 is denoted as C) | B (a compound having 3 or more and less than 10 is denoted as B)
CCO[C@@H]1C[C@H]2C(=O)NC3(CCC3)C(=O)N(C)[C@@H](C3CCCC3)C(=O)N(C)[C@H](C(=O)N3CCOCC3)CC(=O)N(C)[C@@H](CC(C)(C)C)C(=O)N[C@@H]([C@@H](C)CC)C(=O)N(C)CC(=O)N(C)[C@H]3CCCCN(C3=O)[C@@H](Cc3ccc(C(F)(F)F)cc3)C(=O)N(C)CC(=O)N[C@@H](CCc3cc(F)c(C(F)(F)F)c(F)c3)C(=O)N2C1 [PP0714] | C (A compound having a KD ratio of 0.1 or more and less than 3 is denoted as C) | B (a compound having 3 or more and less than 10 is denoted as B)
